IC50 data for 27 compounds are collected here from US20240254089A1, “MODULATORS OF MAS-RELATED G-PROTEIN RECEPTOR X4 AND RELATED PRODUCTS AND METHODS” (ESCIENT PHARMACEUTICALS, INC., priority 2020, published 2024).

The target in the first test is T1, human MRGPR X4 (Homo sapiens, UniProt Q96LA9).
T1 construct: expressed in transfected cells
T1 sequence (Q96LA9 whole entry): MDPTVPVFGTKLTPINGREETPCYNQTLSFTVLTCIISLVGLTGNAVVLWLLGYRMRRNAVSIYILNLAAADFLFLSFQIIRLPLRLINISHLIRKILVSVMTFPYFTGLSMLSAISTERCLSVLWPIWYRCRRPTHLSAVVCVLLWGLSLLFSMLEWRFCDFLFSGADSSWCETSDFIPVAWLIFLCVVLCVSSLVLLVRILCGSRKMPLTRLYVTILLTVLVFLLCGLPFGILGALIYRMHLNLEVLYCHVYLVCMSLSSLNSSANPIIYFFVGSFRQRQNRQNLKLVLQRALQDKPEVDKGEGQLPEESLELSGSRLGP
As to the kind of experiment: MRGPR X4 antagonist activity, IP-One Gq HTRF assay in stably transfected HEK cells. It is filed as cell-based.
Conditions: not given
The gist of the method: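 IC50 comes from HTRF IP-1 accumulation in stably transfected HEK cells expressing human MRGPR X4. Compounds (10 uM top, 1:3 serial, 10 points) were co-incubated with 10 μM bilirubin, 20 μM deoxycholic acid or 100 μM conjugated bilirubin in LiCl-containing buffer, pH 8, for 1 h at 37 °C plus 30 min at room temperature.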
For orientation: Time-resolved FRET reads energy transfer from a long-lived donor to a nearby acceptor.
`Cc1cccc(S(=O)(=O)NC(=O)c2nn(Cc3ccc(OC(F)F)cc3)c3ccccc23)c1` [Compound 270] came in with an IC50 of 1000 to 2500 nM.
On the same count and under the same terms, the figure for `Cc1ccccc1S(=O)(=O)NC(=O)c1nn(Cc2ccc(Cl)cc2)c2ccccc12` [Compound 287] is 1000 to 2500 nM.

Still in this test, the particulars now being: versus 20 μM deoxycholic acid agonist; HEK cells expressing human MRGPR X4; read-out: MRGPRX4 Antagonist Activity.
On to `O=C(NS(=O)(=O)c1ccccc1F)c1nn(Cc2ccc(OC(F)F)cc2)c2ccccc12` [Compound 269], for which the IC50 was in the range of 1000 to 2500 nM.
Consider `Cc1nc(S(=O)(=O)NC(=O)c2nn(Cc3ccc(Cl)cc3)c3ccccc23)sc1C` [Compound 271], for which the IC50 was 1000 to 2500 nM.
Same read-out and setting: the figure for `Cc1cccc(S(=O)(=O)NC(=O)c2nn(Cc3ccc(OC(F)(F)F)cc3)c3ccccc23)c1` [Compound 272] is 1000 to 2500 nM; for `Cc1cccc(S(=O)(=O)NC(=O)c2nn(Cc3ccc(C#N)cc3)c3ccccc23)c1` [Compound 273] it is 1000 to 2500 nM.
The same measure, in the same setting: next, `Cc1cc(F)cc(S(=O)(=O)NC(=O)c2nn(Cc3ccc(OC(F)F)cc3)c3ccccc23)c1` [Compound 274]: 1000 to 2500 nM.
Still for that read-out and setting: next, `COc1ccc(S(=O)(=O)NC(=O)c2nn(Cc3ccc(OC(F)F)cc3)c3ccccc23)cc1C` [Compound 275]: 1000 to 2500 nM; `O=C(NS(=O)(=O)c1ccc(C(F)(F)F)cc1)c1nn(Cc2ccc(OC(F)F)cc2)c2ccccc12` [Compound 276]: 1000 to 2500 nM.
Turning to `COC(=O)c1ccc(S(=O)(=O)NC(=O)c2nn(Cc3ccc(OC(F)F)cc3)c3ccccc23)cc1` [Compound 277], the IC50 was in the range of 1000 to 2500 nM.
On the same count and under the same terms, next, `Cc1cccc(S(=O)(=O)NC(=O)c2nn(Cc3ccc(OC(F)F)cc3)c3ccccc23)c1F` [Compound 278]: 1000 to 2500 nM.
Same read-out and setting: the figure for `Cc1cccc(S(=O)(=O)NC(=O)c2nn(Cc3ccc(Cl)cc3)c3ccccc23)c1` [Compound 279] is 1000 to 2500 nM.
Still for that read-out and setting: the figure for `N#Cc1ccc(S(=O)(=O)NC(=O)c2nn(Cc3ccc(OC(F)F)cc3)c3ccccc23)cc1` [Compound 280] is 1000 to 2500 nM; for `O=C(NS(=O)(=O)c1cccc(OC(F)(F)F)c1)c1nn(Cc2ccc(OC(F)F)cc2)c2ccccc12` [Compound 281] it is 1000 to 2500 nM.
In the case of `Cc1cccc(S(=O)(=O)NC(=O)c2nn(Cc3ccc(OC(F)F)cc3)c3ccccc23)c1C` [Compound 282], the IC50 lay in the range of 1000 to 2500 nM.
The same measure, in the same setting: the figure for `Cc1cccc(S(=O)(=O)NC(=O)c2nn(Cc3ccc(OC(F)F)cc3)c3ccccc23)c1Cl` [Compound 283] is 1000 to 2500 nM.
Still for that read-out and setting: next, `Cc1ccccc1S(=O)(=O)NC(=O)c1nn(Cc2ccc(C(F)(F)F)cc2Cl)c2ccccc12` [Compound 284]: 1000 to 2500 nM.
Still for that read-out and setting: next, `COc1cccc(S(=O)(=O)NC(=O)c2nn(Cc3ccc(OC(F)F)cc3)c3ccccc23)c1` [Compound 285]: 1000 to 2500 nM; `O=C(NS(=O)(=O)c1ccccc1OC(F)(F)F)c1nn(Cc2ccc(OC(F)F)cc2)c2ccccc12` [Compound 286]: 1000 to 2500 nM; `Cc1ccccc1CS(=O)(=O)NC(=O)c1nn(Cc2ccc(Cl)cc2)c2ccccc12` [Compound 288]: 1000 to 2500 nM.
On to `COc1ccc(S(=O)(=O)NC(=O)c2nn(Cc3ccc(OC(F)F)cc3)c3ccccc23)cc1` [Compound 289], for which the IC50 was 1000 to 2500 nM.
Consider `Cc1cc(S(=O)(=O)NC(=O)c2nn(Cc3ccc(OC(F)F)cc3)c3ccccc23)ccc1F` [Compound 290], for which the IC50 lay in the range of 1000 to 2500 nM.
As to `O=C(NS(=O)(=O)c1ccccn1)c1nn(Cc2ccc(Cl)cc2)c2ccccc12` [Compound 291], the IC50 lay within 1000 to 2500 nM.
Same read-out and setting: the figure for `Cc1cccc(S(=O)(=O)NC(=O)c2nn(Cc3ccc(F)cc3)c3ccccc23)c1` [Compound 292] is 1000 to 2500 nM; for `COc1ccc(Cn2nc(C(=O)NS(=O)(=O)c3cccc(C)c3)c3ccccc32)cc1` [Compound 293] it is 1000 to 2500 nM.
On the same count and under the same terms, next, `O=C(NS(=O)(=O)c1ccc(Cl)cc1Cl)c1nn(Cc2ccc(OC(F)F)cc2)c2ccccc12` [Compound 294]: 1000 to 2500 nM.
`Cc1ccc(S(=O)(=O)NC(=O)c2nn(Cc3ccc(OC(F)F)cc3)c3ccccc23)cc1C` [Compound 295]: the IC50 lay within 1000 to 2500 nM.
